# According to US20160222430A1, “D-ALA-D-ALA-BASED DIPEPTIDES AS TOOLS FOR IMAGING PEPTIDOGLYCAN BIOSYNTHESIS” (INDIANA UNIVERSITY RESEARCH AND TECHNOLOGY CORPORATION, priority 2013, published 2016):
# Like-named read-outs stand apart in the source and are kept apart here. Where a SMILES comes first, the peptide text is derived from it. [ ]: non-standard residue; d: D form.
# What was measured:
# [1] = system: B. subtilis cells; type: cell-based, Bacillus subtilis
# [2] = system: E. coli cells; assay: PG labeling of E. coli with dipeptide probes, click chemistry and epifluorescence microscopy; type: cell-based, Escherichia coli; conditions: 0.5 mM, 45 min; clicked to Alexa Fluor 488 azide
# [3] = system: E. coli ΔddlA ΔddlB; type: cell-based, Escherichia coli; also: key: +++++: highest culture density achieved within a set; ++++: intermediate values, relative fractions of the highest culture density within a set; +++: intermediate values, relative fractions of the highest culture density within a set; ++: intermediate values, relative fractions of the highest culture density within a set; +: intermediate values, relative fractions of the highest culture density within a set; −: no bacterial growth
# [4] = system: A. tumefaciens; assay: Control experiment with fluorescent D-Ala and L-Ala in A. tumefaciens; type: cell-based, Agrobacterium tumefaciens
# Description: Control experiments were carried out in A. tumefaciens, B. subtilis and E. coli with fluorescent D-Ala (D-HCC) and fluorescent L-Ala (L-HCC). […] This observation was true for all strains tested.
# [5] = system: B. subtilis wt; type: cell-based, Bacillus subtilis; set-up: Growth rescue (culture density), B. subtilis wt: key: +++++: highest culture density achieved within a set; ++++: intermediate values, relative fractions of the highest culture density within a set; +++: intermediate values, relative fractions of the highest culture density within a set; ++: intermediate values, relative fractions of the highest culture density within a set; +: intermediate values, relative fractions of the highest culture density within a set; −: no bacterial growth; as to Growth (culture density), B. subtilis wt: key: +++++: highest culture density achieved within a set; ++++: intermediate values, relative fractions of the highest culture density within a set; +++: intermediate values, relative fractions of the highest culture density within a set; ++: intermediate values, relative fractions of the highest culture density within a set; +: intermediate values, relative fractions of the highest culture density within a set; −: no bacterial growth
# [6] = system: C. trachomatis serovar L2 strain 434/Bu; assay: DCS Chlamydia trachomatis plaque assay in L2 mouse fibroblast monolayers; type: cell-based; conditions: DCS 294 μM
# [7] = system: C. trachomatis serovar L2 strain 434/Bu; assay: Labeling of chlamydial PG in infected L2 cells; type: cell-based, Chlamydia trachomatis; conditions: grown for 18 h in the presence of antibiotic (DCS 294 μM or ampicillin 2.8 μM)
# [8] = system: E. coli wt; type: cell-based, Escherichia coli; set-up: Growth rescue (culture density), E. coli wt: key: +++++: highest culture density achieved within a set; ++++: intermediate values, relative fractions of the highest culture density within a set; +++: intermediate values, relative fractions of the highest culture density within a set; ++: intermediate values, relative fractions of the highest culture density within a set; +: intermediate values, relative fractions of the highest culture density within a set; −: no bacterial growth; as to Growth (culture density), E. coli wt: key: +++++: highest culture density achieved within a set; ++++: intermediate values, relative fractions of the highest culture density within a set; +++: intermediate values, relative fractions of the highest culture density within a set; ++: intermediate values, relative fractions of the highest culture density within a set; +: intermediate values, relative fractions of the highest culture density within a set; −: no bacterial growth
# [9] = system: E. coli; assay: FDAA/CDAA labeling of E. coli, fluorescence microscopy; type: cell-based, Escherichia coli; conditions: 2%-8% of doubling time
structure (smiles),measurement,setting,value
"C#CN[C@@H](C)C(=O)N[C@@H](C)C(=O)O [ELA-LA, ethynyl-L-alanyl-L-alanine]","PG labeling signal, L-enantiomer control",[1],No labeling was observed
same,"PG labeling signal, L-enantiomer control",[2],No labeling was observed
same,"Growth rescue (culture density), E. coli Δddla, Δddlb","[3]; MM + 0.8 mM, initial inoculum OD600 = 0.025",−
same,"Growth rescue (culture density), E. coli Δddla, Δddlb","[3]; MM + DA-DA (25 μM) + 0.80 mM of the analog, initial inoculum OD600 = 0.0025",+
N[C@@H](CNC(=O)c1cc2ccc(O)cc2oc1=O)C(=O)O [HALA],Incorporation into the cell wall,[4],only D-HCC was incorporated into the cell wall
"N[C@@H]1CONC1=O [DCS, D-cycloserine]","Growth (culture density), B. subtilis wt",[5],−
same,Plaque formation,[6]; no amino acid,−
same,Morphology of chlamydial RBs grown with antibiotic,[7],"inclusions contained enlarged, aberrant RBs"
same,"Growth (culture density), E. coli wt",[8],−
CC1(C)S[C@@H]2[C@H](NC(=O)[C@H](N)c3ccccc3)C(=O)N2[C@H]1C(=O)O [ampicillin],Morphology of chlamydial RBs grown with antibiotic,[7],"inclusions contained enlarged, aberrant RBs"
"C[C@@H](N)C(=O)N[C@H](C)C(=O)O [DA-DA, D-alanyl-D-alanine] (H-[dA]-[dA]-OH)","Growth rescue (culture density), B. subtilis wt",[5],++++
same,Plaque formation,[6]; amino acid to DCS ratio 1:1,++
same,Plaque formation,[6]; amino acid to DCS ratio 10:1,+++
same,"Growth rescue (culture density), E. coli wt",[8],++
same,"Growth rescue (culture density), E. coli Δddla, Δddlb","[3]; MM (M9 + 0.2% glucose) + 25 μM, initial inoculum OD600 = 0.025",++
same,"Growth rescue (culture density), E. coli Δddla, Δddlb","[3]; MM + 25 μM, initial inoculum OD600 = 0.0025",+
same,"Growth rescue (culture density), E. coli Δddla, Δddlb","[3]; MM + 200 μM, initial inoculum OD600 = 0.025",+++++
"C[C@@H](N)C(=O)O [D-Ala, D-alanine]",Plaque formation,[6]; amino acid to DCS ratio 1:1,++++
same,Plaque formation,[6]; amino acid to DCS ratio 1:10,+++
NC(CNC(=O)c1cc2ccc(O)cc2oc1=O)C(=O)O (stereo not drawn) [HADA],Localization of signal after short labeling times,[9],preferential localization of the signal at the septal plane of pre-divisional cells and in punctate patterns on the lateral walls of elongating cells
same,Incorporation into the cell wall,[4],incorporated into the cell wall
